From ChEMBL document CHEMBL6115029, “Discovery of Daraxonrasib (RMC-6236), a Potent and Orally Bioavailable RAS(ON) Multi-selective, Noncovalent Tri-complex Inhibitor for the Treatment of Patients with Multiple RAS-Addicted Cancers” (J Med Chem, 2025)
The source made the active and inactive calls. The rule behind the calls is not given here.

Legend:
[1] = Half-life in female BALB/c mouse at 1 mg/kg, iv measured after 24 hrs by LC-MS/MS analysis; type: ADME, organism-based; settings: in vivo
[2] = Half-life in male Beagle dog at 1 mg/kg, iv measured after 24 hrs by LC-MS/MS analysis; type: ADME, organism-based, Canis lupus familiaris; settings: in vivo
[3] = Genotoxicity in Salmonella typhimurium by Ames test; type: toxicity; settings: salmonella enterica subsp. enterica serovar typhimurium
Mus musculus [4] = assay: In vivo inhibition of MAPK signaling pathway in female BALB/c nude mouse xenografted with human MIA PaCa-2 cells harboring KRAS G12C/G12C mutant assessed as reduction in DUSP6 mRNA level in tumor at 25 mg/kg, po administered as single dose and measured upto 48 hrs by qPCR analysis; type: functional, organism-based
[5] = Tmax in male Beagle dog at 5 mg/kg, po measured after 24 hrs by LC-MS/MS analysis; type: ADME, organism-based, Canis lupus familiaris; settings: in vivo
[6] = Inhibition of ERK1/2 phosphorylation in human CAPAN-1 cells harboring KRAS G12V mutant incubated for 4 hrs by AlphaLISA assay; type: cell-based; settings: CAPAN-1, 4 h
[7] = Clearance in male Sprague-Dawley rat at 1 mg/kg, iv measured after 24 hrs by LC-MS/MS analysis; type: ADME, organism-based; settings: in vivo
[8] = Toxicity in human PBL cells in presence of rat S9 fraction by micronucleus assay; type: subcellular
[9] = biological target: Voltage-gated inwardly rectifying potassium channel KCNH2 (Homo sapiens, UniProt Q12809); assay: Inhibition of human ERG; type: toxicity
[10] = Toxicity in female BALB/c nude mouse xenografted with human HPAF-II cells harboring wildtype KRAS/KRAS G12D mutant assessed as effect on body weight at 25 mg/kg, po administered once daily for 28 days; type: organism-based; settings: in vivo, 672 h, time 28 day
MIA PaCa-2 [11] = assay: Antitumor activity against human MIA PaCa-2 cells harboring KRAS G12C/G12C mutant xenografted in female BALB/c mouse model assessed as tumor regression at 25 mg/kg, po administered once daily for 28 days; type: functional, organism-based; settings: time 28.0 day
[12] = Half-life in male cynomolgus monkey at 10 mg/kg, po measured after 24 hrs by LC-MS/MS analysis; type: ADME, organism-based, Macaca fascicularis; settings: in vivo
Mus musculus [13] = assay: In vivo inhibition of MAPK signaling pathway in female BALB/c nude mouse xenografted with human MIA PaCa-2 cells harboring KRAS G12C/G12C mutant assessed as reduction in DUSP6 mRNA level in tumor at 3 to 10 mg/kg, po administered as single dose and measured upto 48 hrs by qPCR analysis; type: functional, organism-based; settings: dose 3-10 mg/kg
[14] = Half-life in male Beagle dog at 5 mg/kg, po measured after 24 hrs by LC-MS/MS analysis; type: ADME, organism-based, Canis lupus familiaris; settings: in vivo
ASPC1 = assay: Cytotoxicity against human ASPC1 cells harboring KRAS G12D mutant cultured as 2D cells assessed as reduction in cell viability incubated for 120 hrs by CellTiter-Glo luminescence assay; type: functional, cell-based; settings: ASPC1, 120 h
[15] = Inhibition of 6His-tagged KRAS G12V mutant(1 to 169 residues)/GST-tagged GMPPNP-bound BRAF RBD (155 to 229 reisudes)/Cyclophilin A (unknown origin) tri-complex protein-protein interaction incubated for 3 hrs by TR-FERT based disruption assay; parameters: species or system Homo sapiens
[16] = Kinetic solubility of compound in PBS at pH 5.0 measured after 5 hrs by UV analysis; type: physicochemical; settings: read-out: Kinetic_solubility
[17] = In vivo inhibition of MAPK signaling pathway in female BALB/c nude mouse xenografted with human MIA PaCa-2 cells harboring KRAS G12C/G12C mutant assessed as reduction in DUSP6 mRNA level in tumor at 3 mg/kg, po administered as single dose and measured after 8 hrs by qPCR analysis relative to control; type: functional
[18] = Half-life in male Sprague-Dawley rat at 1 mg/kg, iv measured after 24 hrs by LC-MS/MS analysis; type: ADME, organism-based; settings: in vivo
MIA PaCa-2 [19] = assay: Antitumor activity against human MIA PaCa-2 cells harboring KRAS G12C/G12C mutant xenografted in female BALB/c mouse model assessed as reduction in tumor volume administered orally as once daily dose for 28 days; type: functional, cell-based; settings: dose 3-25 mg/kg, route po, time 28.0 day
[20] = Inhibition of ERK1/2 phosphorylation in human ASPC1 cells harboring KRAS G12D mutant incubated for 4 hrs by AlphaLISA assay; type: cell-based; settings: ASPC1, 4 h
[21] = Oral bioavailability in male Beagle dog at 5 mg/kg measured after 24 hrs by LC-MS/MS analysis; type: ADME, organism-based, Canis lupus familiaris; settings: in vivo
NCI-H358 = assay: Cytotoxicity against human NCI-H358 cells harboring KRAS G12C mutant cultured as 2D cells assessed as reduction in cell viability incubated for 120 hrs by CellTiter-Glo luminescence assay; type: functional, cell-based; settings: NCI-H358, 120 h
[22] = Toxicity in female BALB/c nude mouse xenografted with human MIA PaCa-2 cells harboring KRAS G12C/G12C mutant assessed as effect on body weight at 25 mg/kg, po administered once daily for 28 days; type: organism-based; settings: in vivo, 672 h, time 28 day
[23] = Ratio of drug concentration in mouse blood to plasma at 0.1 uM measured upto 120 mins by LC-MS/MS analysis; type: ADME, cell-free
[24] = Tmax in male cynomolgus monkey at 10 mg/kg, po measured after 24 hrs by LC-MS/MS analysis; type: ADME, organism-based, Macaca fascicularis; settings: in vivo
[25] = Half-life in female BALB/c mouse at 10 mg/kg, po measured after 24 hrs by LC-MS/MS analysis; type: ADME, organism-based; settings: in vivo
[26] = Efflux ratio of apparent permeability in human Caco-2 cells at 5 uM incubated for 2 hrs by LC-MS/MS analysis; type: ADME, cell-based
[27] = biological target: Sodium channel protein type 5 subunit alpha (Homo sapiens, UniProt Q14524); assay: Inhibition of human Nav1.5; type: toxicity
HCT-116 [28] = assay: Cytotoxicity against human HCT-116 cells harboring KRAS G13D mutant cultured as 2D cells assessed as inhibition of cell proliferation incubated for 120 hrs by CellTiter-Glo luminescence assay; type: functional, cell-based
[29] = Volume of distribution at steady state in female BALB/c mouse at 1 mg/kg, iv measured after 24 hrs by LC-MS/MS analysis; type: ADME, organism-based; settings: in vivo, read-out: Vdss
[30] = Tmax in male Sprague-Dawley rat at 60 mg/kg, po measured after 24 hrs by LC-MS/MS analysis; type: ADME, organism-based; settings: in vivo
[31] = Volume of distribution at steady state in male cynomolgus monkey at 1 mg/kg, iv measured after 24 hrs by LC-MS/MS analysis; type: ADME, organism-based, Macaca fascicularis; settings: in vivo, read-out: Vdss
HCT-116 [32] = assay: Inhibition of ERK1/2 phosphorylation in human HCT-116 cells harboring KRAS G13D mutant incubated for 4 hrs by AlphaLISA assay; type: cell-based
SK-MEL-30 = assay: Cytotoxicity against human SK-MEL-30 cells harboring […] mutant cultured as 2D cells assessed as inhibition of cell proliferation incubated for 120 hrs by CellTiter-Glo luminescence assay; type: functional, cell-based
[33] = biological target: Voltage-dependent L-type calcium channel subunit alpha-1C (Homo sapiens, UniProt Q13936); assay: Inhibition of human Cav1.2; type: toxicity
NCI-H441 = assay: Cytotoxicity against human NCI-H441 cells harboring KRAS G12V mutant cultured as 2D cells assessed as inhibition of cell proliferation incubated for 120 hrs by CellTiter-Glo luminescence assay; type: functional, cell-based

Voltage-gated inwardly rectifying potassium channel KCNH2, sequence (Q12809 whole entry): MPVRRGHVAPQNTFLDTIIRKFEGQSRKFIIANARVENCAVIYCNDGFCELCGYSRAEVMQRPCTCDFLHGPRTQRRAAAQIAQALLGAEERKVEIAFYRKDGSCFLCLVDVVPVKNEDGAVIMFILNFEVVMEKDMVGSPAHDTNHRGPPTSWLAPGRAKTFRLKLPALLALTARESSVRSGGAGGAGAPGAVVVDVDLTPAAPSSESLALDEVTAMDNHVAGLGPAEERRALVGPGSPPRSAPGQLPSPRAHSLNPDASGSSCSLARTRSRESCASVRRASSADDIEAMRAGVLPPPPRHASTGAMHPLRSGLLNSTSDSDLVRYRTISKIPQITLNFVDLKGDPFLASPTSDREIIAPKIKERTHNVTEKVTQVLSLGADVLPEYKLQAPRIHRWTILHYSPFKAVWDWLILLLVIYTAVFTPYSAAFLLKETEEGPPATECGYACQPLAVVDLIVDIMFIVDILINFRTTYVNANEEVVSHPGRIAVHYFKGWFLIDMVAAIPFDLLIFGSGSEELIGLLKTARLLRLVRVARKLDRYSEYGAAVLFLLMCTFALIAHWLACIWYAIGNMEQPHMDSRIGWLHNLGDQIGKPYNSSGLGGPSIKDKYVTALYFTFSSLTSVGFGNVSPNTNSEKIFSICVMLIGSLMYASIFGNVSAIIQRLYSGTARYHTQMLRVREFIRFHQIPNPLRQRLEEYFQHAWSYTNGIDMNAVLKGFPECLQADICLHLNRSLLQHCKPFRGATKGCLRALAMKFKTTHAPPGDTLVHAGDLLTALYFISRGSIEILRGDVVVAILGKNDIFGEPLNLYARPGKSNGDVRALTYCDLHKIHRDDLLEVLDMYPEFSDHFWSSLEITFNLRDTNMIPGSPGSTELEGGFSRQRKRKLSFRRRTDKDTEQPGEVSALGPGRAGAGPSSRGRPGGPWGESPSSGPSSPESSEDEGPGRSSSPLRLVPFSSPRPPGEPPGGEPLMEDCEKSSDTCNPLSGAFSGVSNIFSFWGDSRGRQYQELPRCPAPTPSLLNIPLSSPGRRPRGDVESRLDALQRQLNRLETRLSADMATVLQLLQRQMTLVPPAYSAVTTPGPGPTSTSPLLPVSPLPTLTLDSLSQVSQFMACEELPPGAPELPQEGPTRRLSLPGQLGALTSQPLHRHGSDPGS
Voltage-dependent L-type calcium channel subunit alpha-1C, sequence (Q13936 whole entry): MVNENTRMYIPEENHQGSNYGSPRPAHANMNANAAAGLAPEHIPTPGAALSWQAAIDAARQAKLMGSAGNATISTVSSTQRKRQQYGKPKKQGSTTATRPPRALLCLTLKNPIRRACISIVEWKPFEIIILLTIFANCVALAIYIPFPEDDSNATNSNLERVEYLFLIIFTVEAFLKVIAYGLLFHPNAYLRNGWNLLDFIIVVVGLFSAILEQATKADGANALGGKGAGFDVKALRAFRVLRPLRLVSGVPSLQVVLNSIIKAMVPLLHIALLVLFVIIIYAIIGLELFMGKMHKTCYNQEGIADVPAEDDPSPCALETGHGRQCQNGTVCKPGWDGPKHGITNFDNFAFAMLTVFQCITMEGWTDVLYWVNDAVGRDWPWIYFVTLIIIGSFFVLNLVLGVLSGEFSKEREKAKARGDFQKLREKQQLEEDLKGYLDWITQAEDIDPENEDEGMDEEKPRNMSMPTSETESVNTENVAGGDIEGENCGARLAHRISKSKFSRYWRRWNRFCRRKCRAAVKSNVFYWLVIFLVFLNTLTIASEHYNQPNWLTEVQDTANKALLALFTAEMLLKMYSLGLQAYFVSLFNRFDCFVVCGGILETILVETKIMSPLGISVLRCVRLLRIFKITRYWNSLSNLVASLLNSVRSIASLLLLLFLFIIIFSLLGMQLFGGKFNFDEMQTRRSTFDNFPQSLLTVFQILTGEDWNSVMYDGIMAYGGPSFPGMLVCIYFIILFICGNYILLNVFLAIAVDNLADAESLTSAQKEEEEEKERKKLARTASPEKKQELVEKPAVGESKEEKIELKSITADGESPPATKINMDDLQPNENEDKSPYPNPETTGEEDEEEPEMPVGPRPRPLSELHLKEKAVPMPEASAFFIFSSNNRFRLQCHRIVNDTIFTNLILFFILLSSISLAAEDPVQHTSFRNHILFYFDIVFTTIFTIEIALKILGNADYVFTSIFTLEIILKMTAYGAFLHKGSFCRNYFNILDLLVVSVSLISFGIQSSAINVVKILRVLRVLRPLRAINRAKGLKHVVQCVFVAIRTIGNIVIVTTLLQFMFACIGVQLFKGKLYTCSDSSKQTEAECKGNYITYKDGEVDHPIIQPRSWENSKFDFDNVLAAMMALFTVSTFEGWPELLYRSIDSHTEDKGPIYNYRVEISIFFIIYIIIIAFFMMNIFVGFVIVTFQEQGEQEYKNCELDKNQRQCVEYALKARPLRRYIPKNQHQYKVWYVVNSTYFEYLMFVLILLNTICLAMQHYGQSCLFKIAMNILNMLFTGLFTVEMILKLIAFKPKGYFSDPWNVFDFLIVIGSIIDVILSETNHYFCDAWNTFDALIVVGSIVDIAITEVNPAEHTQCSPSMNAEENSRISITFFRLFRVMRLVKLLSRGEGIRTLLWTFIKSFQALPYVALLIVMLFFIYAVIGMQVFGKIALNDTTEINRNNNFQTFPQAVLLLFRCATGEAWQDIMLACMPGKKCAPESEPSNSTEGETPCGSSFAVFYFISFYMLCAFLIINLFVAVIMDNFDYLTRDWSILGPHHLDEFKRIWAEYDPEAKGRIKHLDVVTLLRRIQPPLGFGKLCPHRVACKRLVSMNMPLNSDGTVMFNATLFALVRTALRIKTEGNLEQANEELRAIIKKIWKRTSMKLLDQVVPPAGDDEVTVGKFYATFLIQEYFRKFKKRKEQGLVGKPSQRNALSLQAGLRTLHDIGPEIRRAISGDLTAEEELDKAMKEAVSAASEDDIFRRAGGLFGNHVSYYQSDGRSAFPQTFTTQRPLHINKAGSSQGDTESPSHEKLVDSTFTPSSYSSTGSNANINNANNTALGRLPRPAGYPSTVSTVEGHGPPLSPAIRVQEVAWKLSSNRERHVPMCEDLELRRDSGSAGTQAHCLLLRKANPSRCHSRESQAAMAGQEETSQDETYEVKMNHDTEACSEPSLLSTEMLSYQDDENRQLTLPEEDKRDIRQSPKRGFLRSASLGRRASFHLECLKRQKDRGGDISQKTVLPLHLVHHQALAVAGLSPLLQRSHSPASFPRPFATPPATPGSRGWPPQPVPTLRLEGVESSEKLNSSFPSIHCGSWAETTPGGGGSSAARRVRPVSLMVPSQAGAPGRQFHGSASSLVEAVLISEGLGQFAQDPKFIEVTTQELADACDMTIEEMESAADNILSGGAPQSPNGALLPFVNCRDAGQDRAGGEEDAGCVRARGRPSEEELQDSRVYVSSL

**Q.** Which half-life [1] does the source give for `CCn1c(-c2cc(N3CCN(C)CC3)cnc2[C@H](C)OC)c2c3cc(ccc31)-c1csc(n1)C[C@H](NC(=O)[C@H]1C[C@@H]1C)C(=O)N1CCC[C@H](N1)C(=O)OCC(C)(C)C2` here?
**A.** 2.2 h

**Q.** And the half-life [2]?
**A.** 6.1 h

**Q.** What about the Activity [3] of the same compound?
**A.** Non-toxic

**Q.** What about the inhibition (Mus musculus [4]) of the same compound?
**A.** Active

**Q.** What about the Tmax [5] of the same compound?
**A.** 0.7 h

**Q.** What about the EC50 [6] of the same compound?
**A.** 0.3 nM

**Q.** And the clearance [7]?
**A.** 21.7 mL/min/kg

**Q.** What about the Activity [8] of the same compound?
**A.** Non-toxic

**Q.** What about the IC50 [9] of the same compound?
**A.** 8900 nM

**Q.** What about the Activity [10] of the same compound?
**A.** Non-toxic

**Q.** What about the Activity (MIA PaCa-2 [11]) of the same compound?
**A.** Active

**Q.** And the half-life [12]?
**A.** 4.6 h

**Q.** And the inhibition (Mus musculus [13])?
**A.** Not active; Pathway Reactivation Observed

**Q.** And the half-life [14]?
**A.** 5.3 h

**Q.** And the EC50 (ASPC1)?
**A.** 3.1 nM

**Q.** And the IC50 [15]?
**A.** 48 nM

**Q.** What about the solubility kinetic at 5 h [16] of the same compound?
**A.** > 100 µM

**Q.** What about the inhibition in vivo at 3 mg/kg [17] of the same compound?
**A.** 93%

**Q.** And the half-life [18]?
**A.** 1.7 h

**Q.** And the Activity (MIA PaCa-2 [19])?
**A.** Dose-dependent-effect

**Q.** What about the EC50 [20] of the same compound?
**A.** 3.6 nM

**Q.** And the bioavailability [21]?
**A.** 33%

**Q.** What about the EC50 (NCI-H358) of the same compound?
**A.** 1 nM

**Q.** And the Activity [22]?
**A.** Non-toxic

**Q.** And the blood plasma ratio at 2 h, 0.1 µM [23]?
**A.** 4.2

**Q.** And the Tmax [24]?
**A.** 3.7 h

**Q.** What about the half-life [25] of the same compound?
**A.** 2.4 h

**Q.** What about the efflux ratio at 2 h, 5 µM [26] of the same compound?
**A.** 21

**Q.** And the IC50 [27]?
**A.** > 30000 nM

**Q.** What about the Activity (HCT-116 [28]) of the same compound?
**A.** Active

**Q.** What about the Vd [29] of the same compound?
**A.** 1.3 L/kg

**Q.** And the Tmax [30]?
**A.** 4 h

**Q.** What about the Vd [31] of the same compound?
**A.** 2.9 L/kg

**Q.** What about the inhibition (HCT-116 [32]) of the same compound?
**A.** Active

**Q.** And the Activity (SK-MEL-30)?
**A.** Active

**Q.** What about the IC50 [33] of the same compound?
**A.** > 30000 nM

**Q.** What about the Activity (NCI-H441) of the same compound?
**A.** Active
